Patent US12673918B2, “Small molecule RPN13 inhibitors with antitumor properties” (The Johns Hopkins University, priority 2019, dated 2026)
Where two headings read alike, the source gives them in different places. Values belong to the molecule of their own block, whether it stands above or below them.

What was measured:
UWB1.289 + BRCA1 = assay: MTT cytotoxicity assay, UWB1.289 + BRCA1; type: cell-based; conditions: Tables 3A/4B/4C, BRCA1 + Ve
HeLa [1] = assay: MTT cytotoxicity assay, HeLa; conditions: read-out: cytotoxicity IC50 HeLa, Tables 3A/4B/4C
SiHa [2] = assay: MTT cytotoxicity assay, SiHa; conditions: read-out: cytotoxicity IC50 SiHa; Tables 3A/4B/4C; MTT assay
KLE = assay: MTT cytotoxicity assay, KLE; conditions: read-out: cytotoxicity IC50 KLE, Tables 3A/4B/4C
CaSki [3] = assay: MTT cytotoxicity assay, CaSki; conditions: read-out: cytotoxicity IC50 CasKi; Tables 3A/4B/4C; MTT assay
TOV21G = assay: MTT cytotoxicity assay, TOV21G; conditions: read-out: cytotoxicity IC50 TOV21G; Tables 3A/4B/4C; MTT assay
TC1-Lu = assay: MTT cytotoxicity assay, TC1-Lu; conditions: read-out: cytotoxicity IC50 TC1-Lu; Tables 3A/4B/4C; MTT assay
HEC-1A = assay: MTT cytotoxicity assay, HEC-1A; conditions: read-out: cytotoxicity IC50 HEC-1A, Tables 3A/4B/4C
HeLa [4] = test system: HeLa
SiHa [5] = test system: SiHa
CaSki [6] = test system: CaSki
multiple myeloma = conditions: cited from earlier work
PEA2 = conditions: read-out: cytotoxicity IC50 PEA2; Tables 3A/4B/4C; MTT assay
PEO4 = conditions: read-out: cytotoxicity IC50 PEO4; Tables 3A/4B/4C; MTT assay

- IC50 (SKOV3): 0.161 µM
SMILES: C[C@@H]1/C(=C\c2ccc([N+](=O)[O-])cc2)C(=O)/C(=C/c2ccc([N+](=O)[O-])cc2)CN1C(=O)[C@@H](N)Cc1ccccc1 [RA413R]
- IC50 (UWB1.289 + BRCA1): < 0.02 µM
- IC50 (HeLa [1]): 0.172 µM
- IC50 (SiHa [2]): 0.139 µM
- IC50 (KLE): 1.43 µM
- IC50 (CaSki [3]): 0.22 µM
- IC50 (TOV21G): 0.02 µM
- IC50 (TC1-Lu): 1.79 µM
- IC50 (HEC-1A): 0.268 µM

SMILES: C=CC(=O)N1CC/C(=C\c2ccc(F)c([N+](=O)[O-])c2)C(=O)/C(=C/c2ccc(F)c([N+](=O)[O-])c2)C1 [VLX1570]
- IC50 (HeLa [4]): 0.111 µM
- IC50 (SiHa [5]): 0.054 µM
- IC50 (CaSki [6]): 0.068 µM
- IC50 (OVCAR3): 0.018 µM
- IC50 (SKOV3): 0.128 µM
- IC50 (SKOV3-TR): 0.3 µM
- IC50 (BR5-FvB1): 0.25 µM
- IC50 (BR5-Luc): 0.0048 µM
- IC50 (DLD-BRCA2-Ve): 8.54 µM
- IC50 (DLD-Seckle): 0.964 µM
- IC50 (RPE1-ATMKO): 0.963 µM
- dose at which anti-myeloma effects were observed (multiple myeloma; phase I patients (70)): ≥ 0.6 mg/kg
- adverse events (multiple myeloma; two patients at the 1.2 mg/kg dose level (70)): severe, abrupt, and progressive respiratory insufficiency, culminating in death

SMILES: N.N.[Cl][Pt][Cl] [CP, Cisplatin]
- IC50 (PEA2): 9.85 µM
- IC50 (PEO4): 19.5 µM
